Results on 1 compound are retold here after US11696914B1 (priority 2019, dated 2023).

For data set [1] the following is noted: mouse, microsomes; cited from earlier work.
The next data set has as its system Tacaribe virus. Briefly: microbe, parasite or virus in culture. Type of data set: cell-based. As to conditions: Mammarenavirus tacaribeense, Vero.
In another data set the test system is Ebola virus. Nature of the data set: microbe, parasite or virus in culture. Format: cell-based. Particulars: Zaire ebolavirus, Vero 76.
Another data set relates to Poliovirus 3. Nature of the data set: microbe, parasite or virus in culture. Format: cell-based. As to conditions: Enterovirus C, Vero 76.
The next data set has as its system Murine norovirus. Nature of the data set: microbe, parasite or virus in culture. Type of data set: cell-based. As to conditions: Norwalk virus, RAW267.4.
A short description of a further data set: in vitro. As to conditions: dog.
The next data set deals with HepG2 2.2.15. Particulars: human.
Another data set relates to Norovirus. Briefly: microbe, parasite or virus in culture. Format: cell-based. As to conditions: HG23.
The next data set deals with Zika virus. Briefly: microbe, parasite or virus in culture. Format: cell-based. Particulars: Huh-7.
For data set [2], the system named is Respiratory synactial virus. Briefly: organism not typed. As to conditions: MA104. Type of data set: cell-based.

Broadly, the EC50 is the concentration that produces a half-maximal response. By EC90 is commonly meant the concentration at which the effect reaches the 90% level. Consider `COc1ccc2nc3cc(Cl)ccc3c(Nc3cc(CN4CCCC4)c(O)c(CN4CCCC4)c3)c2n1` [Pyronaridine, 4-[(7-Chloro-2-methoxybenzo[b][1,5]naph-thyridin-10-yl)amino]-2,6-bis(1-pyrrolidinylmethyl)phenol phosphate (1:4)], for which the “Relative Peak Area/Abundance MLM” value in data set [1] is reported as 100%. Besides, the EC50 is over 3.2 µM in the data set on Tacaribe virus; over 1.3 µM in the data set with Ebola virus; 3.2 µM with Poliovirus 3; over 40 µM with Murine norovirus; 3.5 µM in the data set on Norovirus; 3.2 µM in the data set on Zika virus. The EC50 in data set [2] is over 7.5 µM. Also, the EC90 is over 40 µM in the data set on Murine norovirus and 9.7 µM with Norovirus. For the same compound, the CC50 in “in vitro” is 3.2 µM; in the data set with HepG2 2.2.15, 3.54 µM.
